16 molecules from publication PMC9516332 (Frontiers in Oncology, 2022) can be followed below.

Structures are written as SMILES. Like-named read-outs stand apart in the source and are kept apart here.

What all share (assay): Kinase panel profiling at 1 µmol/L (MSA or IMAP), percentage inhibition
Assay type in all cases: biochemical

For experiment [1], the target named is panel of 255 wild-type kinases (Homo sapiens, UniProt P00533). The following applies: read-out: %-inhibition at 1 µmol/L, EGFR.
The target in experiment [2] is panel of 255 wild-type kinases (Homo sapiens, UniProt P17252). The following applies: read-out: %-inhibition at 1 µmol/L, PKCα.
For experiment [3], the target named is panel of 255 wild-type kinases (Homo sapiens, UniProt P43405). The settings on record: read-out: %-inhibition at 1 µmol/L, SYK.
Experiment [4] has as its target panel of 255 wild-type kinases (Homo sapiens, UniProt Q16620). The settings on record: read-out: %-inhibition at 1 µmol/L, TRKB.
The target in experiment [5] is panel of 255 wild-type kinases (Homo sapiens, UniProt Q8N4C8). The following applies: read-out: %-inhibition, MINK.
The target in experiment [6] is T1, panel of 255 wild-type kinases (Homo sapiens, UniProt Q8TDC3).
T1 sequence (Q8TDC3 1-778): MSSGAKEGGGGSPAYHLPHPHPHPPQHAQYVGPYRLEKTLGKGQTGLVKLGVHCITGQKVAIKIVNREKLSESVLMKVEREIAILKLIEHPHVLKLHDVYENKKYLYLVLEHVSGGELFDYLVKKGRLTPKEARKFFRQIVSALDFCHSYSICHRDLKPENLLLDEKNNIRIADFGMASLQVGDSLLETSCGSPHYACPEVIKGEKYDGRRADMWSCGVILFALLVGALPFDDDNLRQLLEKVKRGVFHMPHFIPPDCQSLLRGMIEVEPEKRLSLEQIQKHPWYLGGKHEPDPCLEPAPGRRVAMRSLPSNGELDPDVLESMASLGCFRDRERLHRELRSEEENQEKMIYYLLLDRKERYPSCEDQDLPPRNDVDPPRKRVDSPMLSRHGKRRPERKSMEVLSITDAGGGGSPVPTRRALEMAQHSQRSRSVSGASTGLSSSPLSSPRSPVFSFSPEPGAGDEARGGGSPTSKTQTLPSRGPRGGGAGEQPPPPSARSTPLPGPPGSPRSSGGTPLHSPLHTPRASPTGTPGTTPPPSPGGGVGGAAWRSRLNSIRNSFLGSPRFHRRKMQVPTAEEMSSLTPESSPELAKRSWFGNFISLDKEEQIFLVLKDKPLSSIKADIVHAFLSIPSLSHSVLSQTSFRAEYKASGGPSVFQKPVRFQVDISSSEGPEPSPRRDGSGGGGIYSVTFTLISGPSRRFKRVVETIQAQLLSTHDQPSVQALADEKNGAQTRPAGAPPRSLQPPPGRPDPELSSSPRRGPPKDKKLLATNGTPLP
The following applies: read-out: %-inhibition BRSK1.

Experiment [7] has as its target T2, panel of 255 wild-type kinases (Homo sapiens, UniProt Q96PF2).
T2 sequence (Q96PF2 1-358): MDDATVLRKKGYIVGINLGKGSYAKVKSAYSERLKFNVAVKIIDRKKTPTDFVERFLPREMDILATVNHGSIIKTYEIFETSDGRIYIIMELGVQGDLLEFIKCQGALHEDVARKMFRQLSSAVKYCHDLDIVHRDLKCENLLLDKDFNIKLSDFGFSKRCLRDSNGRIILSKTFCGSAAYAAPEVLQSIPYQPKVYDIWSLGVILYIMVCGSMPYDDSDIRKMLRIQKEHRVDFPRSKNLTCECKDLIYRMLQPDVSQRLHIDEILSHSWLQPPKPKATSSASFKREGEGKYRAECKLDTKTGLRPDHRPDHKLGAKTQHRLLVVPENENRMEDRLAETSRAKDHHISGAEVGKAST
The following applies: read-out: %-inhibition at 1 µmol/L, TSSK2.

Experiment [8] deals with panel of 255 wild-type kinases (Homo sapiens, UniProt Q9NQU5). The settings on record: read-out: %-inhibition, PAK6.
The mark [9] stands for this setting: kinase EGFR, 1 µmol/L single concentration.
Where [10] appears, read: kinase PKCα, 1 µmol/L single concentration.
Setting [11] is: kinase TRKB, 1 µmol/L single concentration.
Setting [12] is: MINK, 1 µmol/L single concentration.
[13] abbreviates: BRSK1 kinase assay, 1 µmol/L single concentration.
[14] abbreviates: kinase TSSK2, 1 µmol/L single concentration.
Where [15] appears, read: PAK6, 1 µmol/L single concentration.
The mark [16] stands for this setting: kinase SYK, 1 µmol/L single concentration.

`Cn1cc(-c2cc3c(N4CCN(c5ncc([C@@](C)(N)c6ccc(F)cc6)cn5)CC4)ncnn3c2)cn1` [avapritinib]: the inhibition at 1 µM turned out to be 25% in experiment [1] (setting [9]); 5% in experiment [2] (setting [10]); 44% in experiment [3]; 48% in experiment [4] (setting [11]); 4.44% in experiment [5] (setting [12]); 8.49% in experiment [6] (setting [13]). Moreover, the results for the inhibition at 1 µM in experiment [7] (setting [14]) and in experiment [8] (setting [15]) were 1.35% and 9%, respectively.

`C[C@H](Nc1ncnc2nc[nH]c12)c1cc2cccc(Cl)c2c(=O)n1-c1ccccc1` [duvelisib]: the inhibition at 1 µM in experiment [1] (setting [9]) was 6%; in experiment [2] (setting [10]), 0.321%; in experiment [3] (setting [16]), -2.35%; in experiment [4] (setting [11]), -0.401%; in experiment [5] (setting [12]), 0.317%; in experiment [6] (setting [13]), 0.274%. The inhibition at 1 µM in experiment [7] (setting [14]) was -1.37%; in experiment [8] (setting [15]), 3.69%.

Take `COc1cc2ncnc(Nc3ccc(F)c(Cl)c3)c2cc1NC(=O)/C=C/CN1CCCCC1` [dacomitinib]: the inhibition at 1 µM in experiment [1] (setting [9]) is 103%; in experiment [2] (setting [10]), -4.53%; in experiment [3] (setting [16]) it was -8%; in experiment [4] (setting [11]) it was 6%; in experiment [5] (setting [12]) it was 7.37%; in experiment [6] (setting [13]) it was 14%. Moreover, the inhibition at 1 µM is 1.2% in experiment [7] (setting [14]) and 6.65% in experiment [8] (setting [15]).

Consider `CCN1CCN(c2ccc(Nc3cc(N(C)C(=O)Nc4c(Cl)c(OC)cc(OC)c4Cl)ncn3)cc2)CC1` [infigratinib], for which the inhibition at 1 µM in experiment [2] (setting [10]) was -4%; in experiment [3] (setting [16]), -17%; in experiment [4] (setting [11]), 6%; in experiment [5] (setting [12]) it was -2.82%; in experiment [6] (setting [13]) it was 1.2%; in experiment [7] (setting [14]), -3.74%. Further, the inhibition at 1 µM in experiment [8] (setting [15]) is 10%.

Consider `Cn1cnc2c(F)c(Nc3ccc(Br)cc3Cl)c(C(=O)NOCCO)cc21` [selumetinib], for which the inhibition at 1 µM in experiment [1] (setting [9]) was 26%; in experiment [2] (setting [10]), 0.203%; in experiment [3] (setting [16]), -12%; in experiment [4] (setting [11]), 4%; in experiment [5] (setting [12]) it was -4.5%; in experiment [6] (setting [13]), -1.75%. For the same molecule, the inhibition at 1 µM was -4.25% in experiment [7] (setting [14]) and 12% in experiment [8] (setting [15]).

With `CNC(=O)c1ccc(-c2cnc3ncc(Cc4ccc5ncccc5c4)n3n2)cc1F` [capmatinib], the inhibition at 1 µM in experiment [1] was 17%; in experiment [2], -3.51%; in experiment [3], 2.11%; in experiment [4] it was 16%; in experiment [5], -4%; in experiment [6], 0.113%. In addition, the inhibition at 1 µM in experiment [7] was -3.31%; in experiment [8], -34%.

As for `COC(=O)N[C@@H](C)CNc1nccc(-c2cn(C(C)C)nc2-c2cc(Cl)cc(NS(C)(=O)=O)c2F)n1` [encorafenib], the inhibition at 1 µM in experiment [1] (setting [9]) is 9%; in experiment [2] (setting [10]), 5%; in experiment [3] (setting [16]), -20%; in experiment [4] (setting [11]) it was 7.42%; in experiment [5] (setting [12]), 1.29%; in experiment [6] (setting [13]), 1.38%. Also, the inhibition at 1 µM in experiment [7] (setting [14]) was -2.44%; in experiment [8] (setting [15]) it was 13%.

With `Cc1cc(Nc2ncnc3ccc(NC4=NC(C)(C)CO4)cc23)ccc1Oc1ccn2ncnc2c1` [tucatinib], the inhibition at 1 µM in experiment [1] (setting [9]) is 95%; in experiment [2] (setting [10]) it was 5%; in experiment [3] (setting [16]) it was -0.549%; in experiment [4] (setting [11]) it was 6%; in experiment [5] (setting [12]), -4.35%; in experiment [6] (setting [13]), 0.339%. The inhibition at 1 µM in experiment [7] (setting [14]) was -0.922%; in experiment [8] (setting [15]) it was 6.34%.

In the case of `C=CC(=O)N1CCC([C@@H]2CCNc3c(C(N)=O)c(-c4ccc(Oc5ccccc5)cc4)nn32)CC1` [zanubrutinib], the inhibition at 1 µM is 92% in experiment [1] (setting [9]); -2.63% in experiment [2] (setting [10]); -6.37% in experiment [3] (setting [16]); 6.58% in experiment [4] (setting [11]); -1.27% in experiment [5] (setting [12]); -1.87% in experiment [6] (setting [13]). Also, the inhibition at 1 µM in experiment [7] (setting [14]) turned out to be 0.571%; in experiment [8] (setting [15]), 11%.

`Cn1cnc2c(F)c(Nc3ccc(Br)cc3F)c(C(=O)NOCCO)cc21` [binimetinib]: the inhibition at 1 µM in experiment [1] (setting [9]) was 9%; in experiment [2] (setting [10]), -0.116%; in experiment [3] (setting [16]) it was -19%; in experiment [4] (setting [11]), 3.62%; in experiment [5] (setting [12]), -4.54%; in experiment [6] (setting [13]), -0.585%. For the same molecule, the inhibition at 1 µM in experiment [7] (setting [14]) was -5%; in experiment [8] (setting [15]), 4.75%.

Turning to `COc1ccc(CN2C3CC2CN(c2ccc(-c4cc(OCC(C)(C)O)cn5ncc(C#N)c45)cn2)C3)cn1` [selpercatinib], the inhibition at 1 µM in experiment [1] (setting [9]) was 0.116%; in experiment [2] (setting [10]) it was 3.23%; in experiment [3] (setting [16]), 7.5%; in experiment [4] (setting [11]), 16%; in experiment [5] (setting [12]), -5.33%; in experiment [6] (setting [13]) it was 36%. For the same molecule, the inhibition at 1 µM in experiment [7] (setting [14]) was -0.889%; in experiment [8] (setting [15]), 14%.

In the case of `CCN1C(=O)N(c2c(F)c(OC)cc(OC)c2F)Cc2cnc3[nH]c(CN4CCOCC4)cc3c21` [pemigatinib], the inhibition at 1 µM is -2% in experiment [1] (setting [9]); -1.62% in experiment [2] (setting [10]); -4.26% in experiment [3] (setting [16]); 11% in experiment [4] (setting [11]); -4.31% in experiment [5] (setting [12]); 0.395% in experiment [6] (setting [13]). For the same molecule, the inhibition at 1 µM in experiment [7] (setting [14]) is -3.21%; in experiment [8] (setting [15]) it was 12%.

Regarding `CN1CCN(c2ccc(C(=O)Nc3n[nH]c4ccc(Cc5cc(F)cc(F)c5)cc34)c(NC3CCOCC3)c2)CC1` [entrectinib], the inhibition at 1 µM in experiment [2] (setting [10]) was 20%; in experiment [3] (setting [16]), -5.27%; in experiment [5] (setting [12]), 1.64%; in experiment [6] (setting [13]), 8%; in experiment [7] (setting [14]) it was -7%; in experiment [8] (setting [15]), 15%.

For `C[C@H]1Oc2cc(cnc2N)-c2c(nn(C)c2C#N)CN(C)C(=O)c2ccc(F)cc21` [lorlatinib], the inhibition at 1 µM in experiment [1] (setting [9]) is 9.49%; in experiment [2] (setting [10]), 12%; in experiment [3] (setting [16]), 16%; in experiment [5] (setting [12]), -0.198%; in experiment [6] (setting [13]) it was 29%; in experiment [7] (setting [14]) it was 56%. For the same molecule, the inhibition at 1 µM in experiment [8] (setting [15]) was found to be 14%.

Take `FC(F)(F)c1ccc(CNc2ccc(Cc3c[nH]c4ncc(Cl)cc34)cn2)cn1` [pexidartinib]: the inhibition at 1 µM was -8% in experiment [2] (setting [10]); -6% in experiment [3] (setting [16]); 75% in experiment [4] (setting [11]); 9% in experiment [5] (setting [12]); 9% in experiment [6] (setting [13]); -0.308% in experiment [7] (setting [14]). Also, in experiment [8] (setting [15]), the inhibition at 1 µM was 0.273%.

For the molecule `CCc1nc(C(N)=O)c(Nc2ccc(N3CCC(N4CCN(C)CC4)CC3)c(OC)c2)nc1NC1CCOCC1` [gilteritinib], the inhibition at 1 µM in experiment [1] (setting [9]) was 85%; in experiment [3] (setting [16]) it was 70%; in experiment [4] (setting [11]), 98%; in experiment [5] (setting [12]), 80%; in experiment [6] (setting [13]) it was 23%; in experiment [7] (setting [14]) it was 55%. For the same molecule, the inhibition at 1 µM in experiment [8] (setting [15]) is 22%.
